We go through 14 compounds from US12643895B2, “Heteroaryl-substituted pyrazolo-pyridine protein kinase inhibitors for promoting liver regeneration or reducing or preventing hepatocyte death” (HepaRegeniX GmbH, priority 2019, dated 2026).

Each structure is given as a SMILES string. Bounds are passed on as bounds.

Format in all cases: biochemical
One test addresses T1, BRaf (Homo sapiens, UniProt P15056).
T1 construct: purchased ProQinase GmbH, Freiburg, Germany (assay service)
Description: 33PanQinase radiometric kinase assay, BRaf (off-target). The following applies: ratio IC50(off-target)/IC50(MKK4). As for the experimental part: (§1) The kinase activities of the compounds of the invention were measured using the 33PanQinase® Assay Service provided by ProQinase GmbH, Freiburg, Germany. Details of the assay conditions are disclosed on the website of ProQinase (https://www.proqinase.com/products-services-biochemical-assay-services/kinase-assays). In brief, all kinase assays were performed in 96-well FlashPlates™ from PerkinElmer (Boston, MA, USA) in a 50 μl reaction volume. The reaction cocktail was pipetted in four steps in the following order: • 20 μl of assay buffer (standard buffer) • 5 μl of ATP solution (in H2O) • 5 μl of test compound (in 10% DMSO) • 20 μl enzyme/substrate mix
(§2) The reaction cocktails were incubated at 30° C. for 60 minutes. The reaction is stopped with 50 μl of 2% (v/v) H3PO4, plates were aspirated and washed two times with 200 μl 0.9% (w/v) NaCl. Incorporation of ^33Pi was determined with a microplate scintillation counter (Microbeta, Wallac).
(§3) All assays were performed with a BeckmanCoulter/SAGIAN™ Core System.
(§4) In case of single concentration assays, the potency of the test compound is expressed as % residual activity. […] The fitting method used was a least-squares fit.
(§5) Selectivity of test compounds against BRaf, JNK1 and MKK7, altogether denominated as off-targets was calculated by the ratio of IC50 (off-target)/IC50 (MKK4) and categorized as follows: […]

Another test deals with T2, MKK4 (Homo sapiens, UniProt P45985).
T2 construct: purchased ProQinase GmbH, Freiburg, Germany (assay service)
T2 sequence (P45985 1-399): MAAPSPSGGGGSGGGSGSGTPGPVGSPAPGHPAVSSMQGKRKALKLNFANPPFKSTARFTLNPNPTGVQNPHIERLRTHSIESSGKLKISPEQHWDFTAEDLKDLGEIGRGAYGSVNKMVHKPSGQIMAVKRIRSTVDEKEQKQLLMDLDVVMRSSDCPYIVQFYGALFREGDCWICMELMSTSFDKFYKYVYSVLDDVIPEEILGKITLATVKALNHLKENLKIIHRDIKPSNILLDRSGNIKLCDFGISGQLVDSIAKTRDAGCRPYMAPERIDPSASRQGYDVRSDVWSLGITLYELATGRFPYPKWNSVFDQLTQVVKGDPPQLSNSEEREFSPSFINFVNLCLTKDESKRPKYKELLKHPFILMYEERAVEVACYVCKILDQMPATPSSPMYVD
Description: 33PanQinase radiometric kinase assay, MKK4. The following applies: category based on IC50-values; ATP at apparent Km; read-out: Potency MKK4. The protocol:
as §1, §2, §3, §4

In another test the target is T3, JNK1 (Homo sapiens, UniProt P45983).
T3 construct: purchased ProQinase GmbH, Freiburg, Germany (assay service)
Description: 33PanQinase radiometric kinase assay, JNK1 (off-target). The following applies: ratio IC50(off-target)/IC50(MKK4). As for the experimental part: as §1, §2, §3, §4, §5

The target in another test is T4, MKK7 (Homo sapiens, UniProt O14733).
T4 construct: purchased ProQinase GmbH, Freiburg, Germany (assay service)
T4 sequence (O14733 1-419): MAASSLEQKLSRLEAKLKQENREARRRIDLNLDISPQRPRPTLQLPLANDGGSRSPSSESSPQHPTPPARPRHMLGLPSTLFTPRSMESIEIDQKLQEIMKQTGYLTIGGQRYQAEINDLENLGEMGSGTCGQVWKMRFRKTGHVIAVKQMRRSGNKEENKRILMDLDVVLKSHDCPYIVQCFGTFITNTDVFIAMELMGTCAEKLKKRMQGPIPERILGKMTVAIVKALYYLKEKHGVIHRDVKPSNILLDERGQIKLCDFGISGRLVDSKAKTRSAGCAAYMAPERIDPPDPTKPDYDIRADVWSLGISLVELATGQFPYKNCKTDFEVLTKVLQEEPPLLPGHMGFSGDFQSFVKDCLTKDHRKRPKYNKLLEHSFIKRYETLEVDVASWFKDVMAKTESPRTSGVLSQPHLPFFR
Description: 33PanQinase radiometric kinase assay, MKK7 (off-target). The following applies: ratio IC50(off-target)/IC50(MKK4). The protocol:
as §1, §2, §3, §4, §5

T3 sequence (P45983 whole entry): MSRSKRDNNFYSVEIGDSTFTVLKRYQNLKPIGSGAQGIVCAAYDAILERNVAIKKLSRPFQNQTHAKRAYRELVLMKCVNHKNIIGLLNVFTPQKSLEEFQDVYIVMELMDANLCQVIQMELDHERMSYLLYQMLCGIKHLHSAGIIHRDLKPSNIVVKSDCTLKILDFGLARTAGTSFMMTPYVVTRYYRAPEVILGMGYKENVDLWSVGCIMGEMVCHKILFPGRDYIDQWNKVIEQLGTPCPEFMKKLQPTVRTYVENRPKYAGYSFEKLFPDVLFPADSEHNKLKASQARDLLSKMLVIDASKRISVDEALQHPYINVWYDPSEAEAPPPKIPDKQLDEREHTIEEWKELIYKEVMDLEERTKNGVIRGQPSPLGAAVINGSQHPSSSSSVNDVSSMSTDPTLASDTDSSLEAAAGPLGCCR
T1 sequence (P15056 whole entry): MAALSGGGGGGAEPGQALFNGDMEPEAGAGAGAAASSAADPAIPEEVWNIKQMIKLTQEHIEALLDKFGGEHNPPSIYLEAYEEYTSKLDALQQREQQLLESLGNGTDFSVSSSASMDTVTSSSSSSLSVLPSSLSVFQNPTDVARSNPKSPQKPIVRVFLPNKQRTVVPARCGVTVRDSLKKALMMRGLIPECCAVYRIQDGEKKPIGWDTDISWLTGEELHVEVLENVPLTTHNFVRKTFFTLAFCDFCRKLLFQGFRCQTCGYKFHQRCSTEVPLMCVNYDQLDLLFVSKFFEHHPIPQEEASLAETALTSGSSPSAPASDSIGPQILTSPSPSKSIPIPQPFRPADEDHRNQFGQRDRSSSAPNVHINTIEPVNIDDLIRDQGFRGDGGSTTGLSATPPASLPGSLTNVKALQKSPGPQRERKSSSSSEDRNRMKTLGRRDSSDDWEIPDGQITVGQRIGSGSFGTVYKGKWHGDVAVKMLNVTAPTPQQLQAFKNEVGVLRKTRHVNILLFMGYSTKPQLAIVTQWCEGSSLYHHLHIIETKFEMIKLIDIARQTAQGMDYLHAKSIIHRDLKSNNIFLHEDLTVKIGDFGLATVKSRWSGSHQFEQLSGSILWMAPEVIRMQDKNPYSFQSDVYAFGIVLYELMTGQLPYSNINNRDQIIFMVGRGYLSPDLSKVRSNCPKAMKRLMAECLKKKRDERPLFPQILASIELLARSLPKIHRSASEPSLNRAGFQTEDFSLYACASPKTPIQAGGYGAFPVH

As to `CCCS(=O)(=O)Nc1c(F)ccc(C(=O)c2n[nH]c3ncc(-c4cnc(C(=O)O)nc4)cc23)c1F` [Example 8, 5-(3-(2,4-difluoro-3-(propylsulfonamido)benzoyl)-1H-pyrazolo[3,4-b]pyridin-5-yl)pyrimidine-2-carboxylic acid], the “Selectivity Braf” value on BRaf was “+++ (IC50(off-target)/IC50(MKK4) > 100)”. The IC50 at MKK4 was under 100 nM. Also, on JNK1, the “Selectivity JNK1” value is on record as “+++ (IC50(off-target)/IC50(MKK4) > 100)”. Also, the “Selectivity MKK7” value on MKK7 is “++ (100 ≥ IC50(off-target)/IC50(MKK4) > 10)”.

Consider `CCCS(=O)(=O)Nc1c(F)ccc(C(=O)c2n[nH]c3ncc(-c4cnc(C#N)nc4)cc23)c1F` [Example 9, N-(3-(5-(2-cyanopyrimidin-5-yl)-1H-pyrazolo[3,4-b]pyridine-3-carbonyl)-2,6-difluorophenyl)propane-1-sulfonamide], for which the “Selectivity Braf” value on BRaf is reported as “++ (100 ≥ IC50(off-target)/IC50(MKK4) > 10)”. The IC50 on MKK4 was 100 to 1000 nM. For the same compound, the “Selectivity JNK1” value on JNK1 is given as “++ (100 ≥ IC50(off-target)/IC50(MKK4) > 10)”. In addition, the “Selectivity MKK7” value on MKK7 was “++ (100 ≥ IC50(off-target)/IC50(MKK4) > 10)”.

As to `CCCS(=O)(=O)Nc1c(F)ccc(C(=O)c2n[nH]c3ncc(-c4cnc(-c5nnn[nH]5)nc4)cc23)c1F` [Example 10, N-(3-(5-(2-(1H-tetrazol-5-yl)pyrimidin-5-yl)-1H-pyrazolo[3,4-b]pyridine-3-carbonyl)-2,6-difluorophenyl)propane-1-sulfonamide], the “Selectivity Braf” value at BRaf is given as “+++ (IC50(off-target)/IC50(MKK4) > 100)”. On MKK4, the IC50 is under 100 nM. Moreover, the “Selectivity JNK1” value at JNK1 is “+++ (IC50(off-target)/IC50(MKK4) > 100)”. For the same compound, the “Selectivity MKK7” value on MKK7 was “++ (100 ≥ IC50(off-target)/IC50(MKK4) > 10)”.

For `CCCS(=O)(=O)Nc1c(F)ccc(C(=O)c2n[nH]c3ncc(-c4cnc(Cl)nc4)cc23)c1F` [Example 12, N-(3-(5-(2-chloropyrimidin-5-yl)-1H-pyrazolo[3,4-b]pyridine-3-carbonyl)-2,6-difluorophenyl)propane-1-sulfonamide], the “Selectivity Braf” value at BRaf is listed as “+++ (IC50(off-target)/IC50(MKK4) > 100)”. For the same compound, the IC50 on MKK4 lay in the range of 100 to 1000 nM. For the same compound, the “Selectivity JNK1” value at JNK1 is “+++ (IC50(off-target)/IC50(MKK4) > 100)”. Besides, the “Selectivity MKK7” value at MKK7 is on record as “+++ (IC50(off-target)/IC50(MKK4) > 100)”.

With `CCCS(=O)(=O)Nc1c(F)ccc(C(=O)c2n[nH]c3ncc(-c4cnc(O)nc4)cc23)c1F` [Example 16, N-(2,6-difluoro-3-(5-(2-hydroxypyrimidin-5-yl)-1H-pyrazolo[3,4-b]pyridine-3-carbonyl)phenyl)propane-1-sulfonamide], at BRaf, the “Selectivity Braf” value was “+++ (IC50(off-target)/IC50(MKK4) > 100)”. The IC50 on MKK4 was under 100 nM. In addition, at JNK1, the “Selectivity JNK1” value is listed as “+++ (IC50(off-target)/IC50(MKK4) > 100)”. The “Selectivity MKK7” value at MKK7 is on record as “+++ (IC50(off-target)/IC50(MKK4) > 100)”.

Regarding `CCCS(=O)(=O)Nc1c(F)ccc(C(=O)c2n[nH]c3ncc(-c4ccncc4Cl)cc23)c1F` [Example 17, N-(3-(5-(3-chloropyridin-4-yl)-1H-pyrazolo[3,4-b]pyridine-3-carbonyl)-2,6-difluorophenyl)propane-1-sulfonamide], at BRaf, the “Selectivity Braf” value is “+++ (IC50(off-target)/IC50(MKK4) > 100)”. Further, the IC50 on MKK4 is under 100 nM. Moreover, on JNK1, the “Selectivity JNK1” value is recorded as “+++ (IC50(off-target)/IC50(MKK4) > 100)”. The “Selectivity MKK7” value at MKK7 was “+++ (IC50(off-target)/IC50(MKK4) > 100)”.

In the case of `CCCS(=O)(=O)Nc1c(F)ccc(C(=O)c2n[nH]c3ncc(-c4ccncc4C)cc23)c1F` [Example 18, N-(2,6-difluoro-3-(5-(3-methylpyridin-4-yl)-1H-pyrazolo[3,4-b]pyridine-3-carbonyl)phenyl)propane-1-sulfonamide], the “Selectivity Braf” value on BRaf was “+++ (IC50(off-target)/IC50(MKK4) > 100)”. Besides, the IC50 at MKK4 is under 100 nM. Also, the “Selectivity JNK1” value on JNK1 is listed as “+++ (IC50(off-target)/IC50(MKK4) > 100)”. For the same compound, the “Selectivity MKK7” value at MKK7 was “+++ (IC50(off-target)/IC50(MKK4) > 100)”.

Turning to `CCCS(=O)(=O)Nc1c(F)ccc(C(=O)c2n[nH]c3ncc(-c4ccc(C(C)(C)C)cc4)cc23)c1F` [Example 19, N-(3-(5-(4-(tert-butyl)phenyl)-1H-pyrazolo[3,4-b]pyridine-3-carbonyl)-2,6-difluorophenyl)propane-1-sulfonamide], the “Selectivity Braf” value at BRaf is “+++ (IC50(off-target)/IC50(MKK4) > 100)”. Further, at MKK4, the IC50 was in the range of 100 to 1000 nM. The “Selectivity JNK1” value on JNK1 is “++ (100 ≥ IC50(off-target)/IC50(MKK4) > 10)”. Moreover, at MKK7, the “Selectivity MKK7” value is given as “+++ (IC50(off-target)/IC50(MKK4) > 100)”.

On to `CCCS(=O)(=O)Nc1c(F)ccc(C(=O)c2n[nH]c3ncc(-c4cnc(C(C)(C)C)nc4)cc23)c1F` [Example 21, N-(3-(5-(2-(tert-butyl)pyrimidin-5-yl)-1H-pyrazolo[3,4-b]pyridine-3-carbonyl)-2,6-difluorophenyl)propane-1-sulfonamide], for which, at BRaf, the “Selectivity Braf” value is listed as “+++ (IC50(off-target)/IC50(MKK4) > 100)”. In addition, the IC50 at MKK4 is under 100 nM. On JNK1, the “Selectivity JNK1” value is “+++ (IC50(off-target)/IC50(MKK4) > 100)”. Besides, at MKK7, the “Selectivity MKK7” value is on record as “+++ (IC50(off-target)/IC50(MKK4) > 100)”.

`CCCS(=O)(=O)Nc1c(F)ccc(C(=O)c2n[nH]c3ncc(-c4cnc(SC)nc4)cc23)c1F` [Example 22, N-(2,6-difluoro-3-(5-(2-(methylthio)pyrimidin-5-yl)-1H-pyrazolo[3,4-b]pyridine-3-carbonyl)phenyl)propane-1-sulfonamide]: the “Selectivity Braf” value on BRaf is given as “+++ (IC50(off-target)/IC50(MKK4) > 100)”. For the same compound, the IC50 on MKK4 was under 100 nM. Moreover, the “Selectivity JNK1” value on JNK1 is recorded as “+++ (IC50(off-target)/IC50(MKK4) > 100)”. Moreover, the “Selectivity MKK7” value at MKK7 is given as “+++ (IC50(off-target)/IC50(MKK4) > 100)”.

Turning to `CCCS(=O)(=O)Nc1c(F)ccc(C(=O)c2n[nH]c3ncc(-c4cnc(C(C)C)nc4)cc23)c1F` [Example 23, N-(2,6-difluoro-3-(5-(2-isopropylpyrimidin-5-yl)-1H-pyrazolo[3,4-b]pyridine-3-carbonyl)phenyl)propane-1-sulfonamide], the “Selectivity Braf” value at BRaf is on record as “+++ (IC50(off-target)/IC50(MKK4) > 100)”. Also, the IC50 at MKK4 is under 100 nM. Moreover, the “Selectivity JNK1” value on JNK1 is “+++ (IC50(off-target)/IC50(MKK4) > 100)”. Moreover, the “Selectivity MKK7” value at MKK7 is “+++ (IC50(off-target)/IC50(MKK4) > 100)”.

Turning to `CCCS(=O)(=O)Nc1c(F)ccc(C(=O)c2n[nH]c3ncc(-c4cccnc4)cc23)c1F` [Example 27, N-(2,6-difluoro-3-(5-(pyridin-3-yl)-1H-pyrazolo[3,4-b]pyridine-3-carbonyl)phenyl)propane-1-sulfonamide], the “Selectivity Braf” value at BRaf is “+++ (IC50(off-target)/IC50(MKK4) > 100)”. Besides, the IC50 at MKK4 is under 100 nM. In addition, the “Selectivity JNK1” value at JNK1 is reported as “+++ (IC50(off-target)/IC50(MKK4) > 100)”. Also, the “Selectivity MKK7” value on MKK7 was “+++ (IC50(off-target)/IC50(MKK4) > 100)”.

Take `CCCS(=O)(=O)Nc1c(F)ccc(C(=O)c2n[nH]c3ncc(-c4ccc(C(=O)O)nc4)cc23)c1F` [Example 28, 5-(3-(2,4-difluoro-3-(propylsulfonamido)benzoyl)-1H-pyrazolo[3,4-b]pyridin-5-yl)picolinic acid]: the “Selectivity Braf” value at BRaf was “+++ (IC50(off-target)/IC50(MKK4) > 100)”. Moreover, on MKK4, the IC50 is under 100 nM. For the same compound, the “Selectivity JNK1” value on JNK1 is “+++ (IC50(off-target)/IC50(MKK4) > 100)”. Further, at MKK7, the “Selectivity MKK7” value is listed as “++ (100 ≥ IC50(off-target)/IC50(MKK4) > 10)”.

Regarding `CCCS(=O)(=O)Nc1c(F)ccc(C(=O)c2n[nH]c3ncc(-c4cncnc4C)cc23)c1F` [Example 29, N-[2,6-difluoro-3-[5-(4-methylpyrimidin-5-yl)-1H-pyrazolo[3,4-b]pyridine-3-carbonyl]phenyl]propane-1-sulfonamide], on BRaf, the “Selectivity Braf” value is “+++ (IC50(off-target)/IC50(MKK4) > 100)”. In addition, on MKK4, the IC50 is 100 to 1000 nM. The “Selectivity JNK1” value on JNK1 is given as “+++ (IC50(off-target)/IC50(MKK4) > 100)”. The “Selectivity MKK7” value on MKK7 was “+++ (IC50(off-target)/IC50(MKK4) > 100)”.
